Reference: PMC5896373 (Molecular Pharmacology, 2018)

Experiments:
[1] = target: T1, hP2X1R (Homo sapiens, UniProt P51575); assay: Two-electrode voltage clamp of ATP-evoked currents in Xenopus oocytes; assay type: cell-based
T1 construct: expressed in transfected cells; host or cells: Xenopus laevis oocytes (cRNA injection)

[2] = tested on: chimeric P2X7/1 receptor 112–118; assay: cell-based; assay type: cell-based, human; conditions: chimera 112–118
Protocol: (§1) Additional point mutants were made using the QuikChange mutagenesis kit (Stratagene California, La Jolla, CA). The production of the correct mutations and absence of coding errors was determined by DNA sequencing (Automated ABI Sequencing Service, University of Leicester, UK). cRNA was generated for the mutants and 50 nl (50 ng) was injected into manually defoliculated stage V Xenopus laevis oocytes using an Inject+Matic microinjector (J.A. Gabay, Inject+Matic, Geneva, Switzerland). Injected oocytes were stored at 16°C in ND96 buffer [in millimolar concentrations, NaCl 96, KCl 2, CaCl2 1.8, MgCl2 1, sodium pyruvate 5, and HEPES 5 (pH 7.6) supplemented with 50 μg/ml gentamycin and 50 μg/ml tetracycline]. Three to seven days postinjection two-electrode voltage clamp recordings were made from oocytes bathed in divalent-free ND96 buffer (in millimolar concentrations, NaCl 96, KCl 2, sodium pyruvate 5, HEPES 5, and 0.1 flufenamic acid, pH 7.6). Oocytes were voltage clamped at a holding potential of −60 mV with a GeneClamp500B amplifier (Molecular Devices).
(§2) Inhibition by the antagonists was expressed as the percentage of the peak current amplitude of an EC90 concentration of ATP recorded before the application of antagonist (ATP gave reproducible responses to ATP in the absence of antagonist). Inhibition curves were fitted with the Hill equation (variable slope) using GraphPad Prism 6 (GraphPad Software, San Diego, CA). […] Individual concentration-response curves were generated for individual experiments, and statistical analysis was carried out on the data generated. […] Data are shown as mean ± S.E.M. In all cases n ≥ 3 for all data points.

[3] = tested on: chimeric P2X7/1 receptor 295–310; assay: cell-based; assay type: cell-based, human; conditions: chimera 295–310
Protocol: as §1, §2

[4] = target: T2, P2X7R point mutant L97P (Homo sapiens, UniProt Q99572, I21V/L97P/M24R/N16P/N25R/Q22R/R20V/S23N/T19I/Y26L); assay: cell-based
T2 construct: expressed in transfected cells; host or cells: Xenopus laevis oocytes (cRNA injection)
T2 sequence (Q99572 whole entry N16P/T19I/R20V/I21V/Q22R/S23N/M24R/N25R/Y26L/L97P): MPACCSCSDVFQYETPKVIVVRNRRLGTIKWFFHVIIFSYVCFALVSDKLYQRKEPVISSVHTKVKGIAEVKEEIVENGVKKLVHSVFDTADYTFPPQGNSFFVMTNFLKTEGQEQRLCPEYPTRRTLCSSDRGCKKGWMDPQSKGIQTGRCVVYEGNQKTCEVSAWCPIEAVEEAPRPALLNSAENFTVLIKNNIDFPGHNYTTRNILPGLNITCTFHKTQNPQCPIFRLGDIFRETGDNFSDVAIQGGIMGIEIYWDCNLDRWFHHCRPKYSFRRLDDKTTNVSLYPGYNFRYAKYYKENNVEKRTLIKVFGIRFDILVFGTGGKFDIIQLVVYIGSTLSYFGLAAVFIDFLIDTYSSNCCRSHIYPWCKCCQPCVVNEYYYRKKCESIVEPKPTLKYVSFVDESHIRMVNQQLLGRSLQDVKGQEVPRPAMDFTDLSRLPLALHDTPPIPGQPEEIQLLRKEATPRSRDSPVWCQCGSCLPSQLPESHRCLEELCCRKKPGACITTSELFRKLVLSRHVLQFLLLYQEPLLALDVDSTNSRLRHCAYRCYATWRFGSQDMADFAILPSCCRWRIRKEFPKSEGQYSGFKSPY
Protocol: (§3) The production of the correct mutations and absence of coding errors was determined by DNA sequencing (Automated ABI Sequencing Service, University of Leicester, UK). cRNA was generated for the mutants and 50 nl (50 ng) was injected into manually defoliculated stage V Xenopus laevis oocytes using an Inject+Matic microinjector (J.A. Gabay, Inject+Matic, Geneva, Switzerland). Injected oocytes were stored at 16°C in ND96 buffer [in millimolar concentrations, NaCl 96, KCl 2, CaCl2 1.8, MgCl2 1, sodium pyruvate 5, and HEPES 5 (pH 7.6) supplemented with 50 μg/ml gentamycin and 50 μg/ml tetracycline]. Three to seven days postinjection two-electrode voltage clamp recordings were made from oocytes bathed in divalent-free ND96 buffer (in millimolar concentrations, NaCl 96, KCl 2, sodium pyruvate 5, HEPES 5, and 0.1 flufenamic acid, pH 7.6). Oocytes were voltage clamped at a holding potential of −60 mV with a GeneClamp500B amplifier (Molecular Devices).
(§4) Inhibition by the antagonists was expressed as the percentage of the peak current amplitude of an EC90 concentration of ATP recorded before the application of antagonist (ATP gave reproducible responses to ATP in the absence of antagonist). Inhibition curves were fitted with the Hill equation (variable slope) using GraphPad Prism 6 (GraphPad Software, San Diego, CA). […]

[5] = tested on: P2X7R left flipper point mutant D280A; assay: Two-electrode voltage clamp of ATP-evoked currents in Xenopus oocytes; assay type: cell-based, human
Protocol: as §3, §4

[6] = tested on: P2X7R left flipper point mutant K281A; assay: as above; assay type: cell-based, human
Protocol: (§5) Injected oocytes were stored at 16°C in ND96 buffer [in millimolar concentrations, NaCl 96, KCl 2, CaCl2 1.8, MgCl2 1, sodium pyruvate 5, and HEPES 5 (pH 7.6) supplemented with 50 μg/ml gentamycin and 50 μg/ml tetracycline]. Three to seven days postinjection two-electrode voltage clamp recordings were made from oocytes bathed in divalent-free ND96 buffer (in millimolar concentrations, NaCl 96, KCl 2, sodium pyruvate 5, HEPES 5, and 0.1 flufenamic acid, pH 7.6). Oocytes were voltage clamped at a holding potential of −60 mV with a GeneClamp500B amplifier (Molecular Devices).
(§6) Electrophysiological traces were digitized with a Digidata 1322A and collected using pCLAMP 8.2 software (Molecular Devices, Menlo Park, CA). An EC90 concentration of ATP was used to test antagonist sensitivity for the P2X7-2Nβ and mutant receptors [ATP sensitivity of the chimeras and mutants are reported in [Allsopp et al. (2017)]] to standardize for any changes in ATP sensitivity.
(§7) Inhibition by the antagonists was expressed as the percentage of the peak current amplitude of an EC90 concentration of ATP recorded before the application of antagonist (ATP gave reproducible responses to ATP in the absence of antagonist). […] Any significant differences from the P2X7-2Nβ control were calculated by one-way analysis of variance, followed by Dunnett’s test (using GraphPad Prism 6). […]

[7] = tested on: P2X7R left flipper point mutant T283A; assay: as above; assay type: cell-based, human
Protocol: as §5, §6, §7

[8] = target: T3, chimeric P2X7/1 receptor 89–94 (Homo sapiens, UniProt Q99572, I21V/M24R/N16P/N25R/Q22R/R20V/S23N/T19I/T90V/T94V/Y26L); set-up: method as in Allsopp et al., 2017; conditions: chimera 89–94; ref Allsopp et al., 2017; cited from earlier work
T3 construct: expressed in transfected cells; host or cells: Xenopus laevis oocytes (cRNA injection)
T3 sequence (Q99572 1-595 N16P/T19I/R20V/I21V/Q22R/S23N/M24R/N25R/Y26L/T90V/T94V): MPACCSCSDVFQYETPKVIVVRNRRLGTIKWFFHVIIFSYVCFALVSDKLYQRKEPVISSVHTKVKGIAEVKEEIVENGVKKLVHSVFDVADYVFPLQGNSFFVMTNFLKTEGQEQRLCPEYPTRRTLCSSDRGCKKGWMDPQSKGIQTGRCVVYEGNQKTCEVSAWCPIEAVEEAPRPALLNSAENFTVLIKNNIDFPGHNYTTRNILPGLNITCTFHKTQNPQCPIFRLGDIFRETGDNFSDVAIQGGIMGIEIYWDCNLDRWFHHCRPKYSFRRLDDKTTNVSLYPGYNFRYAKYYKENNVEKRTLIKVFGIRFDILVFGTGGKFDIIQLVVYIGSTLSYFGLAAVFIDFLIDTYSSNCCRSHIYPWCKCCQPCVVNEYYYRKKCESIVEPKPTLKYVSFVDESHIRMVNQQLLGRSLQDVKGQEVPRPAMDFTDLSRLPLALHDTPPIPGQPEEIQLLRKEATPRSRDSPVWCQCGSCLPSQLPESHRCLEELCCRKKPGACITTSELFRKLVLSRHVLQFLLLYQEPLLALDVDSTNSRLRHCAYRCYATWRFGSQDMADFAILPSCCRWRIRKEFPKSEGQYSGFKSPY

[9] = target: T4, chimeric P2X7/1 receptor 210–217 (Homo sapiens, UniProt Q99572, G211E/I214K/I21V/INS213AAHM/L212V/M24R/N16P/N25R/P210E/Q22R/R20V/S23N/T19I/T217L/Y26L); set-up: method as in Allsopp et al., 2017; conditions: chimera 210–217; ref Allsopp et al., 2017; cited from earlier work
T4 construct: expressed in transfected cells; host or cells: Xenopus laevis oocytes (cRNA injection)
T4 sequence (Q99572 with tags, fused parts or gaps N16P/T19I/R20V/I21V/Q22R/S23N/M24R/N25R/Y26L/P210E/G211E/L212V/INS213AAHM/I214K/T217L): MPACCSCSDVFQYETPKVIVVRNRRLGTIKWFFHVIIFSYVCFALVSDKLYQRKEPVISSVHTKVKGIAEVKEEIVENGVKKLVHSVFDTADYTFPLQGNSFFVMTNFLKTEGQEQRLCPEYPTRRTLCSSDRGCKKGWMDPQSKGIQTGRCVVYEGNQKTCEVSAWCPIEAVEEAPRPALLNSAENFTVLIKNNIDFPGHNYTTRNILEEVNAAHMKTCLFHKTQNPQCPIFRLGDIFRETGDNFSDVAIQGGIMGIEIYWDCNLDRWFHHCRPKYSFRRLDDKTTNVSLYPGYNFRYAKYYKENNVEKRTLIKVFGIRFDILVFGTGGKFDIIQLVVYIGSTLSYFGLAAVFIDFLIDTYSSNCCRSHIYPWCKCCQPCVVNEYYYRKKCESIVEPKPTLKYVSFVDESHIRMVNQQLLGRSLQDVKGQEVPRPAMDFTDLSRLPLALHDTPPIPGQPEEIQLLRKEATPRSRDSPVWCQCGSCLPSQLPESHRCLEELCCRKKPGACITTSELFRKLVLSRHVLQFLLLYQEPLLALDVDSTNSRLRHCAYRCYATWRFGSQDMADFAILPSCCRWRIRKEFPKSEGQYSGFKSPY

[10] = target: T5, chimeric P2X7/1 receptor 279–285 (left flipper) (Homo sapiens, UniProt Q99572, DEL279-281/I21V/M24R/N16P/N25R/N284E/Q22R/R20V/S23N/T19I/T282Y/T283E/V285K/Y26L); set-up: method as in Allsopp et al., 2017; conditions: chimera 279–285; ref Allsopp et al., 2017; cited from earlier work
T5 construct: expressed in transfected cells; host or cells: Xenopus laevis oocytes (cRNA injection)
T5 sequence (Q99572 with tags, fused parts or gaps N16P/T19I/R20V/I21V/Q22R/S23N/M24R/N25R/Y26L/DEL279-281/T282Y/T283E/N284E/V285K): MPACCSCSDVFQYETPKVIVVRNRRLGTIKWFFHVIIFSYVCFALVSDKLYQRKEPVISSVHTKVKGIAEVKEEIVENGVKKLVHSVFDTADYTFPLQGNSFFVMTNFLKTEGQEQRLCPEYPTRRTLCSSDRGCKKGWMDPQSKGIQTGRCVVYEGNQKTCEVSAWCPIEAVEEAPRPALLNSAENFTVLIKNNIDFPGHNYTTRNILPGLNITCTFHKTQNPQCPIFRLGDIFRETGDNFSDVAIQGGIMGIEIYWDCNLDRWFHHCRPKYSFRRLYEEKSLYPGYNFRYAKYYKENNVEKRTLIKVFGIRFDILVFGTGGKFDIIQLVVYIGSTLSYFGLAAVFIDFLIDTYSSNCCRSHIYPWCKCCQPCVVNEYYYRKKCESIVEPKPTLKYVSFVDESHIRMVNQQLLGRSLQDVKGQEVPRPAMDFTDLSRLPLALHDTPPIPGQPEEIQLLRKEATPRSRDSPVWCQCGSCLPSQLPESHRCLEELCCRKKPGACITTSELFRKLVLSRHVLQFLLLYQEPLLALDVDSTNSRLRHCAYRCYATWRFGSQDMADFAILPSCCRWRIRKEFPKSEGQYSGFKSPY

T1 sequence (P51575 whole entry): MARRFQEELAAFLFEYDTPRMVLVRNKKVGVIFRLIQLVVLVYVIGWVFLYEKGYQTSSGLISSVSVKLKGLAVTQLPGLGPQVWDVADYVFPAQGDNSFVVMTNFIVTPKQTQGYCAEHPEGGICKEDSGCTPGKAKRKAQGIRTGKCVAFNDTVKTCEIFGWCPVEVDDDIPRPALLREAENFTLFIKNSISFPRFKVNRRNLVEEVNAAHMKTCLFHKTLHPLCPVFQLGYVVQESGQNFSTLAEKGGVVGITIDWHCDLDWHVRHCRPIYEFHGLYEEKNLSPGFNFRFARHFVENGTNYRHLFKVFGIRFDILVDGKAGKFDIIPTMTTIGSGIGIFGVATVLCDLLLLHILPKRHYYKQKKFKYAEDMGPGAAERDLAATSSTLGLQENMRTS

Compound: Cl.Clc1cccc(-c2nnnn2Cc2cccnc2)c1Cl.O [A438079, 3-(5-(2,3-dichlorophenyl)-1H-tetrazol-1-yl)methyl pyridine hydrochloride hydrate]
- inhibition of ATP (EC90)-evoked currents [1]: ineffective

Compound: COc1ccc(CC(=O)NC(N=C(NC#N)Nc2cccc3ncccc23)C(C)(C)C)cc1OC (stereo not shown) [A740003, N-[1-[[(cyanoamino)(5-quinolinylamino)methylene]amino]-2,2-dimethylpropyl]-3,4-dimethoxybenzeneacetamide]
- fold decrease in antagonist sensitivity relative to P2X7-2Nβ [2]: ~3 fold
- fold decrease in antagonist sensitivity relative to P2X7-2Nβ [3]: ~5 fold
- IC50 [4]: 398 nM
- effect on antagonist sensitivity relative to P2X7-2Nβ [5]: no effect
- fold decrease in antagonist sensitivity relative to P2X7-2Nβ [6]: ~4 fold
- fold decrease in antagonist sensitivity/affinity relative to P2X7-2Nβ [7]: ~4 fold

Compound: Cl.Cl.O=C(CC12CC3CC(CC(C3)C1)C2)Nc1cccc2nc(NCCNCCO)ccc12 [AZ10606120, N-[2-[[2-[(2-hydroxyethyl)amino]ethyl]amino]-5-quinolinyl]-2-tricyclo[3.3.1.13,7]dec-1-ylacetamide dihydrochloride]
- fold decrease in antagonist affinity [8]: > 300 fold
- effect on antagonist sensitivity [9]: no change
- effect on antagonist sensitivity [10]: no effect
